Experimental data reported in patent US20260077170A1, “MICRONEEDLE DRUG DELIVERY APPARATUS AND PREPARATION METHOD THEREOF” (TSINGHUA UNIVERSITY, priority 2023, published 2026).

Tests used:
blood glucose = test: Hypoglycemic effect of insulin-loaded microneedle drug delivery apparatus in minipigs; format: in vivo, experimental minipigs; details: delivered into duodenum by gastroscope, real-time blood glucose over 4 hours
Excerpt: Considering the similarities between pigs and humans in the structure of the digestive system and physiological functions, experimental minipigs were used as the animal model for functional verification of the apparatus in this example. To prevent the pigs' chewing behavior from damaging the microneedle drug delivery apparatus and to take the individual variations in gastric emptying time into account, in this example, after anesthetizing the pigs, the microneedle drug delivery apparatus prepared in Example 2 was delivered into the pigs' duodenum using a gastroscope, and this moment was defined as time zero, the beginning of monitoring of the drug concentration in serum and the drug delivery effect. Central venous blood samples were collected every 20 minutes for a continuous time period of 4 hours. Real-time blood glucose was measured using a portable blood glucose meter, and the results were illustrated in FIG. 13 and FIG. 14.

[1] = Bioavailability of insulin from serum pharmacokinetic curve (human insulin ELISA); format: in vivo, experimental minipigs; details: minipigs, (AUC/dose) relative to subcutaneous injection group, serum insulin over 4 hours
Excerpt: Considering the similarities between pigs and humans in the structure of the digestive system and physiological functions, experimental minipigs were used as the animal model for functional verification of the apparatus in this example. To prevent the pigs' chewing behavior from damaging the microneedle drug delivery apparatus and to take the individual variations in gastric emptying time into account, in this example, after anesthetizing the pigs, the microneedle drug delivery apparatus prepared in Example 2 was delivered into the pigs' duodenum using a gastroscope, and this moment was defined as time zero, the beginning of monitoring of the drug concentration in serum and the drug delivery effect. Central venous blood samples were collected every 20 minutes for a continuous time period of 4 hours. Excess blood was placed in a coagulation tube, left to stand for approximately 40 minutes, and then centrifuged to separate the serum. […] Calculating the area under this curve (AUC) can be used to compare the bioavailability of different drug delivery methods. […] The bioavailability was calculated as the ratio of the area under the pharmacokinetic curve (AUC)/administered dose of the test group to the corresponding value of the subcutaneous injection group, for evaluating the efficiency of a drug delivery method. […]

Substance: human recombinant insulin
- hypoglycemic effect (blood glucose): poor hypoglycemic effect
- bioavailability [1]: 0.6%
